Entries after “also recorded” stand apart in the source; their conditions may differ.
What was measured:
Format in all cases: physicochemical
[1] = Fluorescence properties and quenching of chlorin derivatives in lipid nanovesicles; details: embedded within lipid nanovesicles; for Full width at half max: fluorescence
Description: Fluorescence measurements were carried out Fluoromax ut on a Fluoromax-4 spectrofluorometer (Horiba Jobin Yvon, NJ) Fluorescence spectra of intact and detergent disrupted state was measured by exciting samples at 556 nm with a 5 nm slit width and collecting fluorescence from 600 nm to 800 with a 5 nm slit width. Quenching efficiency was calculated by the following equation: […]
(§1) Where F0 and Fdetergent are the integration of fluorescence intensity from 600 nm to 800 nm for intact and detergent-disrupted sample respectively. Circular dichroism spectra was measured in PBS and 0.1% Triton-X100 using a J-815 Circular Dichroism Spectrometer (JASCO Inc.).

[2] = UV/visible absorption and circular dichroism of chlorin-loaded lipid nanovesicles
Description: (§2) Z-average size and polydispersity of the samples in PBS were measured using a Malvern ZS90 (Instruments, UK). Absorption spectra of each sample was determined by UV spectroscopy (CARY 50 UV/Vis S3 Spectrophotometer, Varian Inc.). Absorption spectra of intact samples was measured in PBS, and that of detergent disrupted samples was measured after adding Triton-X100 so that the final detergent concentration was 0.1% v/v.
as §1

[3] = Dynamic light scattering size measurement of chlorin derivatives embedded in liposomes; details: 20% chlorin derivatives embedded within liposomes
Description: Lipid film was prepared in the 12 mm×35 mm clear glass threaded vials (Fisher Scientific) by combining 20% of chlorin derivatives (either Zn-MeO-chlorin acid 7, Zn-vinyl-chlorin lipid, MeO-chlorin lipid, or Zn-MeO-chlorin lipid) with 75% DPPC and 5% DPPE-mPEG2000 dissolved in MeOH or chloroform. The lipid solutions were dried under a stream of nitrogen gas for 30 min and further dried under vacuum desiccation for at least 3 h before hydration. One milliliter phosphate buffered saline (PBS) was added to the lipid films and 10 freeze and thaw cycles was performed by sequentially freezing the sample in liquid nitrogen, followed by rapid thawing in a 70° C. water bath. Dispersed particles were then subjected to extrusion by passing samples 10 times through a high pressure extruder loaded with 100 nm polycarbonate filter membranes at 70° C.
as §2

[4] = Storage stability of nanoparticles at room temperature after freeze-thaw; details: 10 days, PBS, after freeze-thaw rehydration
Description: The color of Zn-MeO-chlorin acid (7) and Zn-MeO-chlorinchlorin lipid (11) nanoparticles was monitored after 10 freeze and thaw cycles. Concentration of chlorin dyes in each sample was adjusted to 60 μM. Samples were stored in the dark at room temperature for 10 days.

[5] = UV/visible absorption of chlorin oleylamine loaded lipoprotein nanoparticles; details: for Qy-band wavelength shift: intact lipoprotein nanoparticle in PBS vs monomeric form in methanol, 10:1 DMPC:dye
Description: Lipid film was prepared in 12 mm×75 mm clear glass threaded vials (Fisher Scientific) by combining 0.1 μmol (4, 10, 10, 13 or 17) and 1.0 μmol DMPC in chloroform. The lipid solutions were dried under a slow stream of nitrogen gas for 30 min and further dried under a higher stream for at least 1 h before hydration. One mL of phosphate buffered saline (PBS) was added to the dried lipid films and sonicated in a 47° C. water bath for 10 minutes immediately followed by Bioruptor at low frequency (30 kHz) for 30 cycles (30 s on/30 s off) at 40° C. R4F peptide (0.1 μmol; 1 mg/mL in PBS) was added into the rehydrated solution and the mixture was mixed gently at 4° C. overnight. The solution was centrifuged at 13 500 rpm for 20 min subsequently and filtered with a 0.1 μm membrane. Unbound peptide was removed and nanoparticle sample was concentrated using a 10 kDa membrane centrifugal filter (EMD Millipore) by two rounds of centrifugation at 4000 g for 7 min at 4° C.
The UV-Vis absorption spectra of lipoprotein nanoparticles with Zn-containing oleylamine compounds 4, 10 and 17 are shown in FIG. 14. The intact structures are labeled in green (solid line) and methanol-disrupted structures are labeled in black (dashed line).

[6] = 20% loading, intact nanovesicles

FL λmax [1] | Stokes Shift [1] | Full width at half max [1] | ordered aggregation in the lipid bilayer ([2]; nanovesicles) | Z-average [3] | PDI (polydispersity index) [3] | Qy-band wavelength shift [5] | Compound | stability on storage (visible dispersion) [4] | further results
 |  |  |  |  |  | 8 nm | C=Cc1c(C)c2[n]3c1=CC1=NC(=Cc4c(C)c5c([n]4[Zn]3)C(=C3N=C(C=2)[C@@H](C)[C@@H]3CCC(=O)NCCCCCCCC/C=C\CCCCCCCC)CC5=O)C(CC)=C1C [Zn-vinyl-chlorin oleylamine, Zinc 13^2-demethoxycarbonylpheophorbide-a oleylamine] |  | 
 |  |  |  |  |  | 61 nm | CCCCCCCC/C=C\CCCCCCCCNC(=O)CC[C@@H]1C2=C3CC(=O)c4c(C)c5[n](c43)[Zn][n]3c(c(C)c(CO)c3=CC3=NC(=C5)C(CC)=C3C)=CC(=N2)[C@H]1C [Zn—OH-chlorin oleylamine, Zinc 3-Devinyl-3^1-hydroxyl-13^2-demethoxycarbonylpheophorbide-a oleylamine] |  | absorption when nanostructures disrupted ([5]; lipoprotein nanoparticles, disrupted): 654 nm; absorption of loaded (intact) nanoparticles ([5]; lipoprotein nanoparticles, intact): 715 nm
682 nm | 9 nm | 21 nm | did not | 101 ± 2.3 nm·days |  |  | Zinc 13^2-demethoxycarbonylpheophorbide-a lipid [Zn-vinyl-chlorin lipid] |  | 

Second part, the compound before the results:

Compound | FL λmax [1] | Stokes Shift [1] | Full width at half max [1] | ordered aggregation in the lipid bilayer ([2]; nanovesicles) | Z-average [3] | PDI (polydispersity index) [3] | Qy-band wavelength shift [5] | stability on storage (visible dispersion) [4] | further results
CCCCCCCCCCCCCCCC(=O)OCC(COP(=O)([O-])OCC[N+](C)(C)C)OC(=O)CC[C@@H]1c2nc(cc3[nH]c(cc4nc(cc5[nH]c6c2CC(=O)c6c5C)C(CC)=C4C)c(COC)c3C)[C@H]1C (some centres unmarked) [MeO-chlorin lipid, 3-Devinyl-3′-methoxymethyl-13^2-demethoxycarbonylpheophorbide-a lipid] | 676 nm | 10 nm | 40 nm | did not | 105 ± 1.6 nm·days |  |  |  | 
CCC1=C(C)C2=NC1=Cc1c(C)c3c4[n]1[Zn][n]1c(c(C)c(COC)c1=C2)=CC1=NC(=C4CC3=O)[C@@H](CCC(=O)O)[C@@H]1C [Zn-MeO-chlorin acid, Zinc 3-devinyl-3′-methoxymethy-13^2-demethoxycarbonylpheophorbide-a] | 664 nm | 1 nm | 24 nm |  | 113.9 ± 9.6 nm·days | > 0.3 |  | flocculated after 10 days; also recorded: Precipitate was observed | shift in optical absorption / CD ([2]; nanovesicles, 1% loading for Zn-MeO-chlorin acid, 20% for chlorin lipids): did not demonstrate appreciable shift in optical absorption nor CD; PDI (polydispersity index) ([3]; listed as Zu—MeO-chlorin acid): 0.3 ± 0.2
Zinc 3-Devinyl-3′-methoxymethyl-13^2-demethoxycarbonylpheophorbide-a lipid [Zn-MeO-chlorin lipid] | 725 nm | no appreciable Stokes' shift | 15 nm | showed ordered aggregation | 96.0 ± 3.9 nm·days | 0.10 ± 0.04 |  | remained visibly dispersed | Stokes Shift ([1]; listed as Zn—MeO-chlorin lipid): 0 nm; CD spectra [2, 6]: bisignate spectra around the Qy band region; far red-shifted absorption peak [2, 6]: 725 nm; secondary peak red-shift from the monomer absorption [2, 6]: 3 nm; bathochromic shift in the lowest energy absorption band (Qy) ([2]; lipid nanovesicles vs monomeric state in methanol or 0.1% Triton X-100): 72 nm; effect of dye loading beyond 20% on spectra ([2]; loading titrated 1-30 mol % of total lipid): neither UV/Vis spectra nor CD spectra significantly changed

Source: patent US20190307893A1, “NANOVESICLES WITH PORPHYRIN-LIPID CONJUGATE CORE” (UNIVERSITY HEALTH NETWORK, priority 2016, published 2019)
